# Legend:
# [1] = Cytotoxicity, HepG2 cells, Resazurin assay; assay type: cell-based; conditions: human
# HBV = test: anti HBV activity, HepG2.117 inducibly HBV producing cell line (Tet-off), intracellular HBV DNA by realtime PCR; assay type: cell-based; conditions: Hepatitis B virus, 72 h, HepG2.117 cells, 3 days of treatment
SMILES,CC50 at 4 days [1] [nM],EC50 (HBV) [nM]
"CC(O)C(C)NS(=O)(=O)c1cn(C)c(C(=O)Nc2ccnc(Cl)c2)c1Cl (racemic) [Compound 90, (+/−)-3-chloro-N-(2-chloro-4-pyridyl)-4-[(2-hydroxy-1-methyl-propyl)sulfamoyl]-1-methyl-pyrrole-2-carboxamide]",> 25000,450
"CC(C)NS(=O)(=O)c1cn(C)c(C(=O)Nc2ccnc(C#N)c2)c1F [Compound 27, N-(2-cyano-4-pyridyl)-3-fluoro-4-(isopropylsulfamoyl)-1-methyl-pyrrole-2-carboxamide]",> 25000,100
"Cc1cc(NC(=O)c2c(Cl)c(S(=O)(=O)N[C@H](C)C(F)(F)F)cn2C)cc(C#N)n1 [Compound 36, 3-chloro-N-(2-cyano-6-methyl-4-pyridyl)-1-methyl-4-[[(1R)-2,2,2-trifluoro-1-methyl-ethyl]sulfamoyl]pyrrole-2-carboxamide]",> 25000,150
"C[C@@H](NS(=O)(=O)c1cn(C)c(C(=O)Nc2cc(F)nc(F)c2F)c1Cl)C(F)(F)F [Compound 43, 3-chloro-1-methyl-4-[[(1R)-2,2,2-trifluoro-1-methyl-ethyl]sulfamoyl]-N-(2,3,6-trifluoro-4-pyridyl)pyrrole-2-carboxamide]",> 25000,80
"C[C@@H](NS(=O)(=O)c1cn(C)c(C(=O)Nc2c(F)cnc(F)c2F)c1Cl)C(F)(F)F [Compound 44, 3-chloro-1-methyl-4-[[(1R)-2,2,2-trifluoro-1-methyl-ethyl]sulfamoyl]-N-(2,3,5-trifluoro-4-pyridyl)pyrrole-2-carboxamide]",> 25000,640
"C[C@@H](NS(=O)(=O)c1cn(C)c(C(=O)Nc2ccc(F)nc2)c1Cl)C(F)(F)F [Compound 50, 3-chloro-N-(6-fluoro-3-pyridyl)-1-methyl-4-[[(1R)-2,2,2-trifluoro-1-methyl-ethyl]sulfamoyl]pyrrole-2-carboxamide]",> 25000,200
"C[C@@H](NS(=O)(=O)c1cn(C)c(C(=O)Nc2ccc(F)cn2)c1Cl)C(F)(F)F [Compound 51, 3-chloro-N-(5-fluoro-2-pyridyl)-1-methyl-4-[[(1R)-2,2,2-trifluoro-1-methyl-ethyl]sulfamoyl]pyrrole-2-carboxamide]",> 25000,600
"Cn1cc(S(=O)(=O)NC2(C(F)(F)F)CC2)cc1C(=O)Nc1ccnc(Cl)c1 [Compound 52, N-(2-chloro-4-pyridyl)-1-methyl-4-[[1-(trifluoromethyl)cyclopropyl]-sulfamoyl]pyrrole-2-carboxamide]",> 25000,80
"Cn1cc(S(=O)(=O)NC2(C)CC(F)(F)C2)c(F)c1C(=O)Nc1ccnc(Cl)c1 [Compound 54, N-(2-chloro-4-pyridyl)-4-[(3,3-difluoro-1-methyl-cyclobutyl)sulfamoyl]-3-fluoro-1-methyl-pyrrole-2-carboxamide]",> 25000,20
"Cn1cc(S(=O)(=O)NC2(C)CC(F)(F)C2)c(F)c1C(=O)Nc1ccnc(C(F)(F)F)c1 [Compound 55, 4-[(3,3-difluoro-1-methyl-cyclobutyl)sulfamoyl]-3-fluoro-1-methyl-N-[2-(trifluoromethyl)-4-pyridyl]pyrrole-2-carboxamide]",> 25000,70
"C[C@@H](NS(=O)(=O)c1cn(C)c(C(=O)Nc2ccnc(C(F)(F)F)c2F)c1Cl)C(F)(F)F [Compound 56, 3-chloro-N-[3-fluoro-2-(trifluoromethyl)-4-pyridyl]-1-methyl-4-[[(1R)-2,2,2-trifluoro-1-methyl-ethyl]sulfamoyl]pyrrole-2-carboxamide]",> 25000,50
"C[C@@H](NS(=O)(=O)c1cn(C)c(C(=O)Nc2cnc(F)c(F)c2)c1Cl)C(F)(F)F [Compound 57, 3-chloro-N-(5,6-difluoro-3-pyridyl)-1-methyl-4-[[(1R)-2,2,2-trifluoro-1-methyl-ethyl]sulfamoyl]pyrrole-2-carboxamide]",> 25000,60
"C[C@H](NS(=O)(=O)c1cn(C)c(C(=O)Nc2ccnc(C#N)c2)c1F)C(C)(F)F [Compound 58, N-(2-cyano-4-pyridyl)-4-[[(1S)-2,2-difluoro-1-methyl-propyl]sulfamoyl]-3-fluoro-1-methyl-pyrrole-2-carboxamide]",> 25000,140
"C[C@H](NS(=O)(=O)c1cn(C)c(C(=O)Nc2ccnc(Cl)c2)c1F)C(C)(F)F [Compound 59, N-(2-chloro-4-pyridyl)-4-[[(1S)-2,2-difluoro-1-methyl-propyl]sulfamoyl]-3-fluoro-1-methyl-pyrrole-2-carboxamide]",> 25000,70
"C[C@H](NS(=O)(=O)c1cn(C)c(C(=O)Nc2ccnc(C(F)(F)F)c2)c1F)C(C)(F)F [Compound 62, 4-[[(1S)-2,2-difluoro-1-methyl-propyl]sulfamoyl]-3-fluoro-1-methyl-N-[2-(trifluoromethyl)-4-pyridyl]pyrrole-2-carboxamide]",> 25000,190
"Cn1cc(S(=O)(=O)NC2(C)CC(F)(F)C2)c(Cl)c1C(=O)Nc1ccnc(C(F)(F)F)c1 [Compound 66, 3-chloro-4-[(3,3-difluoro-1-methyl-cyclobutyl)sulfamoyl]-1-methyl-N-[2-(trifluoromethyl)-4-pyridyl]pyrrole-2-carboxamide]",> 25000,90

SMILES,CC50 at 4 days [1] [nM],EC50 (HBV) [nM]
CC[C@@H](C)NS(=O)(=O)c1cn(C)c(C(=O)Nc2ccnc(C#N)c2)c1F [Compound 67],> 25000,30
"CC[C@@H](C)NS(=O)(=O)c1cn(C)c(C(=O)Nc2ccnc(C(F)(F)F)c2)c1F [Compound 68, 3-fluoro-1-methyl-4-[[(1R)-1-methylpropyl]sulfamoyl]-N-[2-(trifluoromethyl)-4-pyridyl]pyrrole-2-carboxamide]",> 25000,50
"CC[C@@H](C)NS(=O)(=O)c1cn(C)c(C(=O)Nc2ccnc(Cl)c2)c1F [Compound 69, N-(2-chloro-4-pyridyl)-3-fluoro-1-methyl-4-[[(1R)-1-methylpropyl]sulfamoyl]pyrrole-2-carboxamide]",> 25000,30
"CC[C@@H](C)NS(=O)(=O)c1cn(C)c(C(=O)Nc2ccnc(C(F)(F)F)c2)c1Cl [Compound 70, 3-chloro-1-methyl-4-[[(1R)-1-methylpropyl]sulfamoyl]-N-[2-(trifluoromethyl)-4-pyridyl]pyrrole-2-carboxamide]",> 25000,150
"Cc1c(S(=O)(=O)N[C@H](C)C(F)(F)F)c(F)c(C(=O)Nc2ccnc(C#N)c2)n1C [Compound 71, N-(2-cyano-4-pyridyl)-3-fluoro-1,5-dimethyl-4-[[(1R)-2,2,2-trifluoro-1-methyl-ethyl]sulfamoyl]pyrrole-2-carboxamide]",> 25000,20
"CC[C@@H](C)NS(=O)(=O)c1cn(C)c(C(=O)Nc2ccnc(C#N)c2)c1Cl [Compound 72, 3-chloro-N-(2-cyano-4-pyridyl)-1-methyl-4-[[(1R)-1-methylpropyl]-sulfamoyl]pyrrole-2-carboxamide]",> 25000,100
"CC[C@@H](C)NS(=O)(=O)c1cn(C)c(C(=O)Nc2ccnc(Cl)c2)c1Cl [Compound 73, 3-chloro-N-(2-chloro-4-pyridyl)-1-methyl-[[(1R)-1-methylpropyl]-sulfamoyl]pyrrole-2-carboxamide]",21600,90
"C[C@@H](NS(=O)(=O)c1cn(C)c(C(=O)Nc2ccc(F)c(Cl)n2)c1Cl)C(F)(F)F [Compound 75, 3-chloro-N-(6-chloro-5-fluoro-2-pyridyl)-1-methyl-4-[[(1R)-2,2,2-trifluoro-1-methyl-ethyl]sulfamoyl]pyrrole-2-carboxamide]",> 25000,60
"C[C@@H](NS(=O)(=O)c1cn(C)c(C(=O)Nc2ccc(F)c(Br)n2)c1Cl)C(F)(F)F [Compound 76, N-(6-bromo-5-fluoro-2-pyridyl)-3-chloro-1-methyl-4-[[(1R)-2,2,2-trifluoro-1-methyl-ethyl]sulfamoyl]pyrrole-2-carboxamide]",> 25000,50
"C[C@@H](NS(=O)(=O)c1cn(C)c(C(=O)Nc2ccc(F)nc2F)c1Cl)C(F)(F)F [Compound 77, 3-chloro-N-(2,6-difluoro-3-pyridyl)-1-methyl-4-[[(1R)-2,2,2-trifluoro-1-methyl-ethyl]sulfamoyl]pyrrole-2-carboxamide]",> 25000,300
"CC(C)NS(=O)(=O)c1cn(C)c(C(=O)Nc2ccnc(C(F)(F)F)c2)c1F [Compound 78, 3-fluoro-4-(isopropylsulfamoyl)-1-methyl-N-[2-(trifluoromethyl)-4-pyridyl]pyrrole-2-carboxamide]",> 25000,260
"CC(C)NS(=O)(=O)c1cn(C)c(C(=O)Nc2ccnc(Cl)c2)c1F [Compound 79, N-(2-chloro-4-pyridyl)-3-fluoro-4-(isopropylsulfamoyl)-1-methyl-pyrrole-2-carboxamide]",> 25000,150
"CC[C@H](NS(=O)(=O)c1cn(C)c(C(=O)Nc2ccnc(C(F)F)c2)c1Cl)C(F)(F)F [Compound 84, 3-chloro-N-[2-(difluoromethyl)-4-pyridyl]-1-methyl-4-[[(1S)-1-(trifluoromethyl)propyl]sulfamoyl]pyrrole-2-carboxamide]",> 25000,110
"CC[C@@H](C)NS(=O)(=O)c1cn(C)c(C(=O)Nc2ccnc(C(F)F)c2)c1F [Compound 86, N-[2-(difluoromethyl)-4-pyridyl]-3-fluoro-1-methyl-4-[[(1R)-1-methylpropyl]sulfamoyl]pyrrole-2-carboxamide]",21600,40
"C[C@H](CO)NS(=O)(=O)c1cn(C)c(C(=O)Nc2ccnc(Cl)c2)c1Cl [Compound 89, 3-chloro-N-(2-chloro-4-pyridyl)-4-[[(1R)-2-hydroxy-1-methyl-ethyl]sulfamoyl]-1-methyl-pyrrole-2-carboxamide]",> 25000,360

# From patent US11078193B2 (priority 2014, dated 2021)
